Publication PMC5866846 (Archives of Toxicology, 2017)
Where two headings read alike, the source gives them in different places.

Legend:
[1] = molecular target: T1, CYP2C9 (Homo sapiens, UniProt P11712); test: CYP2C9 activity in upcyte hepatocytes after treatment (probe substrate cocktail); format: cell-based; parameters: host or cells: upcyte hepatocytes 653-03 and 653-03 #138 (653-03 2D6); settings: human, probe tolbutamide 100 µM, 5 µM
Description: (§1) Cells were cultivated in hepatocyte culture medium at 37 °C and 5 °% CO2 in a humidified incubator. Before starting experiments, cells were cultivated in hepatocyte culture medium containing 0.5% (v/v) DMSO (Preculture medium) for 5 days (density of 0.8 × 10^4 cells/cm^2) and were subcultivated in high-performance medium containing 0.1% (v/v) DMSO (Metabolism conditioning medium) for 3–5 days (density of 1.6 × 10^5 cells/cm^2, confluence). The medium was replaced every 2–3 days.
(§2) In HLM and supersome™ incubations the formation rate is given as nmol µg^−1 min^−1 and fmol pmol^−1 min^−1, respectively, and was calculated as the mean ± SD. […] The intrinsic Clearance (Clint) was given as Vmax/Km ratio. […] Activity of CYP enzymes in induction assays is given as the fold-change (mean ± SD) compared to the corresponding DMSO-treated control. […] Gene expression patterns of treated cells are given as fold-change compared to the corresponding DMSO-treated control samples, as described above. […] In induction and inhibition experiments corresponding EC50 and IC50 values were calculated by nonlinear regression. In all experiments a level of probability (p) ≤ 0.05 for statistical testing was considered significant.
(§3) As control 0.05 % DMSO was used. The basal CYP activity and induction of CYP activity compared to the DMSO control were measured via HPLC-ESI-MS/MS.

[2] = molecular target: T2, CYP2C19 (Homo sapiens, UniProt P33261); test: Inhibition of CYP2C19 activity in HLM; format: in vitro ADME; settings: 200 nM to 10 µM, 10 min pre-incubation
T2 sequence (P33261 whole entry): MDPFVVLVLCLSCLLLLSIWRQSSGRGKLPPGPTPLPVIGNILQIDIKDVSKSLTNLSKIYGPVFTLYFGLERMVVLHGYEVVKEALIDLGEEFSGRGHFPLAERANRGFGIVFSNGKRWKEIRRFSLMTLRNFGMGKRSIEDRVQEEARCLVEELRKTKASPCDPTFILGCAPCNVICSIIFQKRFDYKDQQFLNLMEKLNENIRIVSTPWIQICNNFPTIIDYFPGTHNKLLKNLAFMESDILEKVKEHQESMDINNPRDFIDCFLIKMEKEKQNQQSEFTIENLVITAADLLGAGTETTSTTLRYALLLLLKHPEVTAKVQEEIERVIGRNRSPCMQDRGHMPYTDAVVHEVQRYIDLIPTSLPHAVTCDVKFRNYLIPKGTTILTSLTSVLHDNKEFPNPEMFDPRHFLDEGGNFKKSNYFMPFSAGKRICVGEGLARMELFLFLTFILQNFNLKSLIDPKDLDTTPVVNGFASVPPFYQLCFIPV

[3] = molecular target: T1, CYP2C9; test: Inhibition of CYP2C9 activity in HLM; format: in vitro ADME; settings: 200 nM to 10 µM, 10 min pre-incubation
[4] = molecular target: T3, CYP2C8 (Homo sapiens, UniProt P10632); test: CYP2C8 activity in upcyte hepatocytes after treatment (probe substrate cocktail); format: cell-based; parameters: host or cells: upcyte hepatocytes 653-03 and 653-03 #138 (653-03 2D6); settings: human, upcyte hepatocytes 653-03 and 653-03 2D6, probe amodiaquine 5 µM, 5 µM, both cell lines
T3 sequence (P10632 1-490): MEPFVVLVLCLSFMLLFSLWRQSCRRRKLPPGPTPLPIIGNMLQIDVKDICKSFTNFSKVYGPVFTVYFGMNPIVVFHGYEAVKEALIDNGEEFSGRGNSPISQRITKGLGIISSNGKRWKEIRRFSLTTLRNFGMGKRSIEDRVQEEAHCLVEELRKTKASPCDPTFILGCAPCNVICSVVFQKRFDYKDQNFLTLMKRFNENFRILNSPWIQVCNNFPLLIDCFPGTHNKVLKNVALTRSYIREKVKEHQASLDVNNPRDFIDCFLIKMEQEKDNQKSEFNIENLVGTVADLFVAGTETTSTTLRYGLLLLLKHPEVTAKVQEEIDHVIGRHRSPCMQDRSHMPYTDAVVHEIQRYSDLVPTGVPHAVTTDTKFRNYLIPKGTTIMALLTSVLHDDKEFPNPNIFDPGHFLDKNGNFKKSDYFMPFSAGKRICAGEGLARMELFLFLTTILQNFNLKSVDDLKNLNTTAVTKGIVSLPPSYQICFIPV
Description: as §1, §2, §3

[5] = molecular target: T2, CYP2C19; test: CYP2C19 activity in upcyte hepatocytes after treatment (probe substrate cocktail); format: cell-based; parameters: host or cells: upcyte hepatocytes 653-03 and 653-03 #138 (653-03 2D6); settings: human, probe S-mephenytoin 100 µM, 5 µM
Description: as §1, §2, §3

[6] = molecular target: T3, CYP2C8; test: Inhibition of CYP2C8 activity in HLM; format: in vitro ADME; settings: 200 nM to 10 µM, 10 min pre-incubation
[7] = test system: CYP1A2, 2C19, 2C9, 2B6, 3A4 and 2C8; test: CYP activity in upcyte hepatocytes after treatment, all tested CYP isoenzymes together; format: cell-based, human; settings: 500 nM, 3 days
Description: as §1, §2

[8] = Formation kinetics of Tam-Bis, (Z)- and (E)-Met E in HLM with increasing substrate concentrations; format: in vitro ADME, human; settings: substrate 1 to 50 µM, Michaelis-Menten
Description: The reaction was started by adding a NADPH regenerating system (5 mM MgCl2, 5 mM glucose-6-phosphate, 0.5 mM NADP^+ and 10 U glucose-6-phosphate-dehydrogenase in 100 mM sodium phosphate buffer pH 7.4) to the samples and immediately put in a 37 °C water bath for 30 min. The reaction was stopped with the same volume of acetonitrile (ACN) containing 1% of acetic acid together with the corresponding deuterated internal standards. Regarding incubations with Supersomes™ containing UGTs, 5 µg of protein was incubated with 250 mM MgCl2 and 2.5 ng of alamethicin for 30 min on ice, followed by 10 min at 37 °C in a water bath. Subsequently, the Supersomes™ were incubated with 10 µM of substrates (Tam-Bis, (E)- and (Z)-Met E) and the glucuronidation was started by addition of 10 mM of uridine 5′-diphospho-glucuronic acid to the samples in a water bath at 37 °C for 30 min. The reaction was stopped as described above. Metabolites were analyzed by HPLC-ESI-MS/MS.
For the assessment of formation kinetics of Tam-Bis, (E)- and (Z)-Metabolite E, HLM were incubated with increasing substrate concentrations ranging from 1 to 50 µM as described above. As control for each concentration a sample without NADPH-regenerating system was prepared. […]

[9] = test system: CYP1A1 gene expression; test: CYP1A1 gene expression in upcyte hepatocytes (Fluidigm RT-PCR); format: cell-based, human; settings: 5 µM, 72 h, both cell strains
From the text: Differences between induced and control samples were compared using Welch’s t-test (GraphPad Prism, version 5.04), when the fold-change was considered biologically relevant (1.5-fold increase or decrease in fold-changes) and corrected for multiple testing according to Bonferroni. […] An unpaired t-test assuming unequal variances was used for testing of differences in the expression patterns, when the fold-change was considered biologically relevant (1.5-fold increase or decrease in fold-changes) and corrected using Bonferroni adjustments.

[10] = test system: upcyte hepatocytes 653-03 2D6; test: Tam metabolism in upcyte hepatocytes 653-03 2D6, metabolites in culture medium; format: in vitro ADME, human; settings: cells incubated with 1 µM Tam up to 144 h, 653-03 2D6
Description: The medium was replaced every 2–3 days. […].
The culture medium was collected after 24, 48, 72, 96 and 144 h followed by metabolite measurements using HPLC-ESI-MS/MS.
Protein was precipitated by the addition of ACN containing 1% of acetic acid and the corresponding deuterated internal standards to the same volume of the sample followed by centrifugation at 20.000 g for 15 min at RT. […] Analytes were separated on a Zorbax Eclipse Plus C18 column (1.8 µm, 100 × 2.1 mm, Agilent technologies) and detected on a 6460 triple quadrupole mass spectrometer (Agilent technologies) in positive ESI MRM mode. Glucuronides of estrogen-like metabolites were detected separately via MS/MS-measurements in negative ESI MRM mode.
[…]. […] […].

[11] = read-out: Km, (E)-Met E formation
[12] = read-out: Km, (Z)-Met E formation

T1 sequence (P11712 whole entry): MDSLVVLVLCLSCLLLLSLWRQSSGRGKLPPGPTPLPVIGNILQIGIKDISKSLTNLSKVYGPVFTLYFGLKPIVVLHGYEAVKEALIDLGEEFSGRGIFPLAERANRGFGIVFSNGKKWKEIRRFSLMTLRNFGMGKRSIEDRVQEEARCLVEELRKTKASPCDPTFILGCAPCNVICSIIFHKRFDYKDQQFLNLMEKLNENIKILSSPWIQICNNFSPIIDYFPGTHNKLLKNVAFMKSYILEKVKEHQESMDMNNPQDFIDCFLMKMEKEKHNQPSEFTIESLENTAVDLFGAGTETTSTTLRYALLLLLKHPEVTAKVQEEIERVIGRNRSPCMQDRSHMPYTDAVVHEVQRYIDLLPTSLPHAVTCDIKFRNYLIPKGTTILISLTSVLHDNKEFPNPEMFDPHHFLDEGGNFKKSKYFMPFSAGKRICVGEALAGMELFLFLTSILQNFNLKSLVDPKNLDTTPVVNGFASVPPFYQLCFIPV

| inhibition at 72 h, 5 µM [1] [%] | IC50 [3] [nM] | inhibition at 72 h, 5 µM [4] [%] | IC50 [6] [µM] | Km [8, 11] [µM] | Km [8, 12] [µM] | SMILES | V max, (E)-Met E formation [8] [pmol/mg/min] | V max, (Z)-Met E formation [8] [pmol/mg/min] | other results |
| --- | --- | --- | --- | --- | --- | --- | --- | --- | --- |
|  |  |  |  | 20.7 | 55.1 | CC/C(=C(\c1ccccc1)c1ccc(OCCN)cc1)c1ccccc1 [DDM-Tam, N-didesmethyl-tamoxifen] | 0.70 | 5.2 |  |
|  |  |  |  | 11.5 | 82.3 | CC/C(=C(\c1ccccc1)c1ccc(OCCN(C)C)cc1)c1ccccc1 [Tam, Tamoxifen, reference compound] | 0.57 | 9.2 |  |

The next lines start with the compound.

| SMILES | inhibition at 72 h, 5 µM [1] [%] | IC50 [3] [nM] | inhibition at 72 h, 5 µM [4] [%] | IC50 [6] [µM] | Km [8, 11] [µM] | Km [8, 12] [µM] | V max, (E)-Met E formation [8] [pmol/mg/min] | V max, (Z)-Met E formation [8] [pmol/mg/min] | other results |
| --- | --- | --- | --- | --- | --- | --- | --- | --- | --- |
| CC/C(=C(\c1ccc(O)cc1)c1ccc(OCCN)cc1)c1ccccc1 [Norendox, N-didesmethyl-4-hydroxytamoxifen] | 93 | 210 | 62.5 | 2.4 |  |  |  |  | IC50 [2]: 320 nM; inhibition at 72 h, 5 µM [5]: ≤ 70% |
| C[C@]12CC[C@@H]3c4ccc(O)cc4CC[C@H]3[C@@H]1CC[C@@H]2O [estradiol, reference compound] |  |  |  |  |  |  |  |  | impact on CYP activities [7]: did not have an impact |
| CC/C(=C(\c1ccc(O)cc1)c1ccc(OCCNC)cc1)c1ccccc1 [Endox, (Z)-endoxifen] | 63 | > 10000 | ≤ 90 | 8.1 |  |  |  |  | CYP1A1 gene expression, induction vs DMSO control [9]: up to 2.3 fold; IC50 at 15 min ([2]; human, human liver microsomes): > 10 µM; IC50 of CYP2C9 activity [3]: weakly inhibited; concentration in the culture medium [10]: up to 11 nM |
